Four molecules from US7279542B2, “Polymeric particles and fragrance delivery systems” (Firmenich SA, priority 2003, dated 2007) can be followed below.

Data set [1] is described as follows: Swelling of micro-capsules with single fragrance raw materials (mass fraction in swollen micro-capsule). It is filed as physicochemical. Particulars: micro-capsules of Example 4 swelled with excess raw material, 1 to 3 days. The source says:
The capsules were allowed to swallow with an excess of the model-perfume (see Example 1) during 1 to 3 days. The swelled micro-particles were then separated from the remaining perfume by filtration and washed with ethanol. This experiment was repeated for various raw materials having various chemical functionalities or various polarities (i.e. LogP, P being the partition coefficient between octanol and water).

A short description of data set [2]: LogP of fragrance raw materials (partition coefficient between octanol and water). It is filed as physicochemical.
[3] abbreviates: P = partition coefficient between octanol and water, read-out: LogP.

Like-named read-outs stand apart in the source and are kept apart here.

Take `CC(=O)OCc1ccccc1` [Benzyl acetate]: the “Fragrance mass fraction in the final swollen micro-capsule weight [%]” value (“Fragrance mass fraction … [%]” for short) in data set [1] stood at 49.8%. For the same molecule, in data set [2] (setting [3]), the logP came to 1.57.
On the same counts, the results for `CC(C)=CCC/C(C)=C/CO` [Geraniol] are 36.2% and 3.59.
As to `O=C1CCCCCCCCC/C=C/CCCO1` [Habanolide ®, pentadecenolide], the “Fragrance mass fraction … [%]” value in data set [1] is given as 50.3%. Besides, in data set [2], the logP was 5.37.
As to `CCCCCCOC(=O)c1ccccc1O` [Hexyl salicylate], in data set [1], the “Fragrance mass fraction … [%]” value is 50.7%. The logP in data set [2] (setting [3]) amounted to 4.91.

As a reminder, the logP is a log measure of how a compound divides between an organic and an aqueous phase.
